What was measured:
[1] = system: Leishmania amazonensis; assay: Antileishmanial activity against Leishmania amazonensis promastigotes assessed as inhibition of parasite viability at 50 uM measured after 24 hrs by resazurin based colorimetric assay relative to control; assay type: functional
[2] = system: Leishmania amazonensis; assay: Antileishmanial activity against Leishmania amazonensis promastigotes assessed as inhibition of parasite viability measured after 24 hrs by resazurin based colorimetric assay; assay type: functional, organism-based
[3] = Cytotoxicity against mouse L929 cells assessed as cell viability upto 50 uM measured after 24 hrs by MTT assay relative to control; assay type: toxicity, cell-based; settings: read-out: Activity
[4] = Cytotoxicity against mouse L929 cells assessed as cell viability at 100 uM measured after 24 hrs by MTT assay relative to control; assay type: toxicity, cell-based; settings: read-out: Activity

COc1cc(OC)c(OC)cc1/C=C/C(=O)c1ccc(Br)cc1
inhibition at 50 µM [1]: 98.2% | IC50 [2]: 6.33 µM | viability at 24 h, 50 µM [3]: > 80% | viability at 24 h, 100 µM [4]: > 60%

CN(C)c1ccc(/C=C/C(=O)c2cccc(Br)c2)cc1
inhibition at 50 µM [1]: 98.7% | IC50 [2]: 10.8 µM | viability at 24 h, 50 µM [3]: > 80% | viability at 24 h, 100 µM [4]: > 70%

O=C(/C=C/c1cccs1)c1ccc(Br)cc1
inhibition at 50 µM [1]: 93.6%

COc1ccc(/C=C/C(=O)c2cccc(Br)c2)cc1
inhibition at 50 µM [1]: 93%

COc1ccc(/C=C/C(=O)c2ccc(Br)cc2)cc1
inhibition at 50 µM [1]: 80.7%

O=C(/C=C/c1ccccc1)c1cccc(Br)c1
inhibition at 50 µM [1]: 99.8% | IC50 [2]: 13.8 µM | viability at 24 h, 50 µM [3]: > 80% | viability at 24 h, 100 µM [4]: > 60%

CN(C)c1ccc(/C=C/C(=O)c2ccc(Br)cc2)cc1
inhibition at 50 µM [1]: 91.2%

CSc1ccc(/C=C/C(=O)c2ccc(Br)cc2)cc1
inhibition at 50 µM [1]: 39.3%

Cc1ccc(/C=C/C(=O)c2ccc(Br)cc2)cc1
inhibition at 50 µM [1]: 57%

O=C(/C=C/c1ccc2c(c1)OCO2)c1ccc(Br)cc1
inhibition at 50 µM [1]: 87.5%

O=C(/C=C/c1cccc2ccccc12)c1ccc(Br)cc1
inhibition at 50 µM [1]: 83.9%

O=C(/C=C/c1ccc(OCc2ccccc2)cc1)c1cccc(Br)c1
inhibition at 50 µM [1]: 95%

O=C(/C=C/c1ccccc1F)c1ccc(Br)cc1
inhibition at 50 µM [1]: 99.4% | IC50 [2]: 23.9 µM | viability at 24 h, 50 µM [3]: > 80% | viability at 24 h, 100 µM [4]: > 60%

Cc1ccc(/C=C/C(=O)c2cccc(Br)c2)cc1
inhibition at 50 µM [1]: 94.8%

O=C(/C=C/c1ccccc1F)c1cccc(Br)c1
inhibition at 50 µM [1]: 91.7%

O=C(/C=C/C=C/c1ccccc1)c1ccc(Br)cc1
inhibition at 50 µM [1]: 33.8%

O=C(/C=C/c1cccs1)c1cccc(Br)c1
inhibition at 50 µM [1]: 86.7%

O=C(/C=C/C=C/c1ccccc1)c1cccc(Br)c1
inhibition at 50 µM [1]: 90.8%

O=C(/C=C/c1cccc2ccccc12)c1cccc(Br)c1
inhibition at 50 µM [1]: 90.8%

O=C(/C=C/c1ccc(OCc2ccccc2)cc1)c1ccc(Br)cc1
inhibition at 50 µM [1]: 24.2%

CSc1ccc(/C=C/C(=O)c2cccc(Br)c2)cc1
inhibition at 50 µM [1]: 97.3% | IC50 [2]: 11.4 µM | viability at 24 h, 50 µM [3]: > 80% | viability at 24 h, 100 µM [4]: > 70%

C[C@@H]1[C@H](O)[C@@H](C)/C=C/C=C/C=C/C=C/C=C/C=C/C=C/[C@H](O[C@@H]2O[C@H](C)[C@@H](O)[C@H](N)[C@@H]2O)C[C@@H]2O[C@](O)(C[C@@H](O)C[C@@H](O)[C@H](O)CC[C@@H](O)C[C@@H](O)CC(=O)O[C@H]1C)C[C@H](O)[C@H]2C(=O)O [AMPHOTERICIN B]
IC50 [2]: 0.115 µM

O=C(/C=C/c1ccccc1)c1ccccc1 [CHALCONE]
inhibition at 50 µM [1]: 90.1% | IC50 [2]: 10.6 µM
